From publication PMC12057046, “Elucidation of short linear motif-based interactions of the MIT and rhodanese domains of the ubiquitin-specific protease 8” (Biology Direct, 2025)
Blank lines part the entries; values can stand above or below the substance they belong to.

Experiments:
USP8 Rhod domain = biological target: T1, USP8 Rhod domain (Homo sapiens, UniProt P40818); assay: Peptide-phage display-based deep mutational scanning (DMS), USP8 Rhod domain; type: binding; conditions: for enrichment_relative_to_wt at position 15 (wt L) / proportion of amino acid at position 15 (wt L) / enrichment_relative_to_wt at position 10 (wt S) / proportion of amino acid at position 10 (wt S): PSSM, library USP8_DMS, days 2,3; for hit_pair_ratio: bait USP8_Rhodanese__P40818_174_317
T1 construct: USP8 Rhod (174–317) (UniProt: P40818); GST (cleaved yes); made in house; host or cells: Escherichia coli BL21-Gold (DE3)
T1 sequence (P40818 174-317): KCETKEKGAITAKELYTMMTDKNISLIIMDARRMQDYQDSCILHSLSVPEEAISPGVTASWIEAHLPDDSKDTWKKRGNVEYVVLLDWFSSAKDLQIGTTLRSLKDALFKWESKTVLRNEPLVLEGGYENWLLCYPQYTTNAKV

USP8 MIT domain = assay: Peptide-phage display-based deep mutational scanning (DMS), USP8 MIT domain; type: binding, human; conditions: bait USP8_MIT__P40818_1_142; EFCAB12 (Q6NXP0) 2-17; pair of mutant with wild-type wt_00016 (MDDDYEAYHSLFLSLL); sheet S3.B_ProP-PD_pairs
Procedure: The residues of these 16 amino acid-long wild-type peptides were substituted to all natural amino acid residues, except cysteine, in all positions (Supplementary Table S2A). The designed peptide sequences were reverse-translated to oligonucleotides optimized to the codon usage of E. coli. The required flanking regions (5´[…] and 3´[…]) were added for library construction. The library was generated as previously described.
Four rounds of phage selections were carried out using the second generation human disorderome library or the constructed deep mutational scanning library. At least three individual replicates were used for each bait protein. 10 µg of GST-tagged proteins or GST control (diluted in PBS from the stock of proteins kept in the purification elution buffer) were immobilized in 100 µL PBS on a 96-well MaxiSorp (Nunc) plate overnight at 4 °C. The plates were incubated with blocking buffer (with 0.5% BSA in PBS) for 1 h at 4 °C followed by washing with 0.05% Tween 20 in PBS four times. The naïve phage library (10^11 CFU) was diluted in 1/5th volume PEG/NaCl (20% PEG-8000, 0.4 M NaCl) and 1X PBS, incubated on ice for 10 min and centrifuged at 10,000 [drawing 3] g for 10 min. The pellet was resuspended in the volume of PBS (100 µL/ well). The GST-coated control plate was incubated with 100 µL library per well in PBS for 1 h at 4 °C to remove non-specific binders. The supernatant was transferred to the target wells and incubated for 2 h at 4 °C. The wells were washed five times with 0.05% Tween 20 in PBS and the bound phages were eluted with 100 µL per well log-phase E. coli OmniMAX by incubating at 37° C while shaking. After 30 min, M13KO7 helper phages were added and incubated for an additional 45 min. The bacterial cultures were transferred to 1 mL 2YT supplemented with 100 µg/mL carbenicillin, 30 µg/mL kanamycin and 0.3 mM IPTG and grew overnight at 37 °C while shaking. The following day the cultures were centrifuged for 10 min at 2,000 [drawing 4] g, 4 °C. 1/10th volume of 10 [drawing 5] PBS was added to adjust the pH and heated at 65 °C for 10 min. The phage pools from each round were used as in-phages for the next round of selections.
The samples were prepared for NGS as previously described. Peptide-coding regions of the enriched phage pools were amplified and barcoded using Phusion High-Fidelity PCR Master Mix (Thermo Fisher) for 22 cycles and confirmed by 2% agarose gel electrophoresis. The PCR products were normalized with 25 µL Mag-bind Total Pure NGS beads (Omega Biotek) and 10 µL of each eluted sample (Qiagen Elution Buffer) was pooled and cleaned-up with a PCR purification kit (Qiagen). The PCR product was confirmed by 2% agarose electrophoresis and the band was extracted with QIAquick Gel extraction Kit (Qiagen) and eluted with 30 µL TE buffer. The dsDNA was quantified using QuantiT PicoGreen dsDNA Assay Kit (Thermo Fisher) and sent for NGS (Illumina MiSeq v3, 1 × 150 bp read setup, 20% PhiX, NGI SciLifeLab facility, Sweden). The NGS data were demultiplexed, adapter regions were trimmed and sequences with an average quality of at least 20 were translated to peptide sequences. The NGS data were analysed using custom Python scripts. The total read NGS counts for each selection experiment of each peptide sequence were compiled and annotated in PepTools (https://slim.icr.ac.uk/tools/peptools/). Since ProP-PD is in essence a competition assay, the possibility of the input phage library influencing the selection outcome was explored. For this, the Pearson correlation coefficient, p-value and coefficient of determination were calculated for all peptide NGS count fractions in the library coverage vs. in the selections results (Supplementary Fig. S7; Supplementary Table S2B; Supplementary Table S3B; Supplementary Table S7B). Pearson correlation coefficient and p-value were calculated using Python’s SciPy library. […]

[1] = wild type/mutant pair, vs hit_library_peptide_wt GLALWEAKMKQLAERA, negative where mutant fraction exceeds wild type, ProP-PD pairs (sheet S7.B)
[2] = ProP-PD pairs, wild-type/mutant pair, wild type KIAA1614 569-584 GMERVLGGLSSPLRLL (wt_00013)
[3] = wild-type/mutant pair ratio of averaged fractions, negative values where mutant fraction is higher

enrichment_relative_to_wt at position 15 (wt L) (USP8 Rhod domain): -277
proportion of amino acid at position 15 (wt L) (USP8 Rhod domain): 0.00349
Substance: KIAA1614_Q5VZ46_569_584 L15I (MERVLGGLSSPLRLIP; UniProt Q5VZ46 569-584, looked up, variant L15I)

enrichment_relative_to_wt at position 15 (wt L) (USP8 Rhod domain): -89
proportion of amino acid at position 15 (wt L) (USP8 Rhod domain): 0.0109
Substance: KIAA1614_Q5VZ46_569_584 L15N (MERVLGGLSSPLRLNP; peptide 569-584; UniProt Q5VZ46 569-584, looked up, variant L15N)

enrichment_relative_to_wt at position 15 (wt L) (USP8 Rhod domain): -151
proportion of amino acid at position 15 (wt L) (USP8 Rhod domain): 0.00642
Substance: KIAA1614_Q5VZ46_569_584 L15V (MERVLGGLSSPLRLVP; UniProt Q5VZ46 569-584, looked up, variant L15V)

enrichment_relative_to_wt at position 10 (wt S) (USP8 Rhod domain): -77
proportion of amino acid at position 10 (wt S) (USP8 Rhod domain): 0.00734
Substance: KIAA1614_Q5VZ46_569_584 S10E (MERVLGGLSEPLRLLP; UniProt Q5VZ46 569-584, looked up, variant S10E)

enrichment_relative_to_wt at position 10 (wt S) (USP8 Rhod domain): -1.37
proportion of amino acid at position 10 (wt S) (USP8 Rhod domain): 0.41
Substance: KIAA1614_Q5VZ46_569_584 S10H (MERVLGGLSHPLRLLP; UniProt Q5VZ46 569-584, looked up, variant S10H)

enrichment_relative_to_wt at position 10 (wt S) (USP8 Rhod domain): -231
proportion of amino acid at position 10 (wt S) (USP8 Rhod domain): 0.00245
Substance: KIAA1614_Q5VZ46_569_584 S10I (MERVLGGLSIPLRLLP; UniProt Q5VZ46 569-584, looked up, variant S10I)

enrichment_relative_to_wt at position 10 (wt S) (USP8 Rhod domain): -328
proportion of amino acid at position 10 (wt S) (USP8 Rhod domain): 0.00172
Substance: KIAA1614_Q5VZ46_569_584 S10V (MERVLGGLSVPLRLLP; peptide 569-584; UniProt Q5VZ46 569-584, looked up, variant S10V)

hit_pair_ratio (USP8 Rhod domain; [1]): 238.03
Substance: KLALWEAKMKQLAERA

hit_pair_ratio (USP8 Rhod domain; [2]): 10.10
Substance: KMERVLGGLSSPLRLL

Substance: LDDDYEAYHSLFLSLL [mut_04329]
hit_pair_ratio (USP8 MIT domain): 1.88

hit_pair_ratio (USP8 Rhod domain; [2]): 64.39
Substance: LMERVLGGLSSPLRLL

hit_pair_ratio (USP8 Rhod domain; [2]): 6.27
Substance: MMERVLGGLSSPLRLL

hit_pair_ratio (USP8 Rhod domain; [1]): 107.46
Substance: NLALWEAKMKQLAERA

hit_pair_ratio (USP8 Rhod domain; [2]): 1.70
Substance: NMERVLGGLSSPLRLL

hit_pair_ratio (USP8 Rhod domain; [3]): 1.96
Substance: PMERVLGGLSSPLRLL

hit_pair_ratio (USP8 Rhod domain; [1]): 553.50
Substance: QLALWEAKMKQLAERA

hit_pair_ratio (USP8 Rhod domain; [3]): -4.33
Substance: QMERVLGGLSSPLRLL

hit_pair_ratio (USP8 Rhod domain; [1]): 1107.01
Substance: RLALWEAKMKQLAERA

hit_pair_ratio (USP8 Rhod domain; [2]): 3.82
Substance: RMERVLGGLSSPLRLL

hit_pair_ratio (USP8 Rhod domain; [3]): -2.25
Substance: SMERVLGGLSSPLRLL

hit_pair_ratio (USP8 Rhod domain; [3]): -2.57
Substance: TMERVLGGLSSPLRLL

hit_pair_ratio (USP8 Rhod domain; [2]): 53.66
Substance: VMERVLGGLSSPLRLL

hit_pair_ratio (USP8 Rhod domain; [2]): 1.49
Substance: WMERVLGGLSSPLRLL

hit_pair_ratio (USP8 Rhod domain; [2]): 10.06
Substance: YMERVLGGLSSPLRLL
